From patent US9468661B2, “Pyrrolidine derivatives and their use as complement pathway modulators” (priority 2012, dated 2016)
Like-named read-outs stand apart in the source and are kept apart here.

Biological target: human factor D (Homo sapiens (Human), UniProt P00746)
Assay: biochemical
Format: biochemical
Settings: recombinant human factor D 10 nM, substrate Z-Lys-thiobenzyl, fluorescence
Experimental: Human Complement Factor D Assay: Method 1
Recombinant human factor D (expressed in E. coli and purified using standard methods) at 10 nM concentration is incubated with test compound at various concentrations for 1 hour at room temperature in 0.1 M Hepes buffer, pH 7.5, containing 1 mM MgCl2, 1 M NaCl and 0.05% CHAPS. A synthetic substrate Z-Lys-thiobenzyl and 2,4-dinitrobenzenesulfonyl-fluoresceine are added to final concentrations of 200 μM and 25 μM, respectively. The increase in fluorescence is recorded at excitation of 485 nm and emission at 535 nm in a microplate spectrofluorimeter. IC50 values are calculated from percentage of inhibition of complement factor D-activity as a function of test compound concentration.

[1] = Factor D inhibition data using Method 1, read-out: IC50
[2] = IC50, Factor D inhibition data using Method 1

human factor D, sequence (P00746 26-253): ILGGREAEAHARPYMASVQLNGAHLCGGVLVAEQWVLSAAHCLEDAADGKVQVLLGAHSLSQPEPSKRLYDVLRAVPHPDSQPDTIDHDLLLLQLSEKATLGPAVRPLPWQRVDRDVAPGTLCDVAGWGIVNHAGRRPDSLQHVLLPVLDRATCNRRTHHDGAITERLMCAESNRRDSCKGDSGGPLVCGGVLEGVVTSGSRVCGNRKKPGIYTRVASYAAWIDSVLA

Row | IC50 [1] | SMILES | IC50 [2]
1 | 661 nM | CC(=O)c1nn(CC(=O)N2[C@@H]3C[C@@H]3C[C@H]2C(=O)NCC2CCCC(C)(C)C2)c2cnccc12 (single isomer, unassigned; dia 1) [Example 17] | 
2 | 1610 nM | CC(=O)c1nn(CC(=O)N2[C@@H]3C[C@@H]3C[C@H]2C(=O)NCC2CCCC2(C)C)c2cnccc12 (single isomer, unassigned; dia 1) [Example 19] | 
3 |  | NC(=O)c1nn(CC(=O)N2[C@@H]3C[C@@H]3C[C@H]2C(=O)NC(CO)C2CC2(Cl)Cl)c2ccccc12 (single isomer, unassigned; dia 1) [Example 23] | 1610 nM
4 |  | CC1C(CNC(=O)[C@@H]2C[C@H]3C[C@H]3N2C(=O)Cn2nc(C(N)=O)c3ccccc32)C1(Cl)Cl (single isomer, unassigned; dia 1) [Example 73, 1-(2-{(1R,3S,5R)-3-[((1R,3R) or (1S,3S)-2,2-Dichloro-3-methyl-cyclopropylmethyl)-carbamoyl]-2-aza-bicyclo[3.1.0]hex-2-yl}-2-oxo-ethyl)-1H-indazole-3-carboxylic acid amide-Dia 1] | 100 nM
5 |  | CC(=O)c1nn(CC(=O)N2[C@@H]3C[C@@H]3C[C@H]2C(=O)NCC2C(C)C2(Cl)Cl)c2ccc(OCc3ncccn3)cc12 (single isomer, unassigned; dia 1) [Example 75, (1R,3S,5R)-2-{2-[3-Acetyl-5-(pyrimidin-2-ylmethoxy)-indazol-1-yl]-acetyl}-2-aza-bicyclo[3.1.0] hexane-3-carboxylic acid ((1R,3R) or (1S,3S)-2,2-dichloro-3-methyl-cyclopropylmethyl)-amide-Dia 1] | 7 nM
6 |  | CC1C(CNC(=O)[C@@H]2C[C@H]3C[C@H]3N2C(=O)Cn2nc(C(N)=O)c3ccccc32)C1(Cl)Cl (single isomer, unassigned; dia 1) [Example 77, 1-(2-{(1R,3S,5R)-3-[((1R,3S) or (1S,3R)-2,2-Dichloro-3-methyl-cyclopropylmethyl)-carbamoyl]-2-aza-bicyclo[3.1.0]hex-2-yl}-2-oxoethyl)-1H-indazole-3-carboxylic acid amide-Dia 1] | 35 nM
7 |  | CC1C(CNC(=O)[C@@H]2C[C@H]3C[C@H]3N2C(=O)Cn2nc(C(N)=O)c3ccncc32)C1(Cl)Cl (single isomer, unassigned; dia 1) [Example 79, 1-(2-{(1R,3S,5R)-3-[((1R,3S) or (1S,3R)-2,2-Dichloro-3-methyl-cyclopropylmethyl)-carbamoyl]-2-aza-bicyclo[3.1.0]hex-2-yl}-2-oxo-ethyl)-1H-pyrazolo[3,4-c]pyridine-3-carboxylic acid amide-Dia 1] | 229 nM
8 |  | CC1C(CNC(=O)[C@@H]2C[C@H]3C[C@H]3N2C(=O)Cn2nc(C(N)=O)c3ccncc32)C1(Cl)Cl (single isomer, unassigned; dia 1) [Example 81, 1-(2-{(1R,3S,5R)-3-[((1R,3R) or (1S,3R)-2,2-Dichloro-3-methyl-cyclopropylmethyl)-carbamoyl]-2-aza-bicyclo[3.1.0]hex-2-yI}-2-oxo-ethyl)-1H-pyrazolo[3,4-c]pyridine-3-carboxylic acid amide-Dia 1] | 21 nM
9 | 1410 nM | CC1CCCC1CNC(=O)[C@@H]1C[C@H]2C[C@H]2N1C(=O)Cn1nc(C(N)=O)c2ccncc21 (single isomer, unassigned; dia 1) [Example 85] | 
10 |  | CC1CCC(CNC(=O)[C@@H]2C[C@H]3C[C@H]3N2C(=O)Cn2nc(C(N)=O)c3ccccc32)C1 (single isomer, unassigned; dia 1) [Example 89] | 74 nM
11 |  | CC(=O)c1nn(CC(=O)N2[C@@H]3C[C@@H]3C[C@H]2C(=O)NCC2C(C)C2(Cl)Cl)c2ccc(OCc3ncccn3)cc12 (single isomer, unassigned; dia 1) [Example 108, (1R,3S,5R)-2-{2-[3-Acetyl-5-(pyrimidin-2-ylmethoxy)-indazol-1-yl]-acetyl}-2-aza-bicyclo[3.1.0] hexane-3-carboxylic acid ((1R,3S) or (1S,3R)-2,2-dichloro-3-methyl-cyclopropylmethyl)-amide-Dia 1] | 27 nM
12 | 877 nM | CC1CCCC(CNC(=O)[C@@H]2C[C@H]3C[C@H]3N2C(=O)Cn2nc(C(N)=O)c3ccncc32)C1 (single isomer, unassigned; dia 1) [Example 115] | 
13 | 389 nM | CC(=O)c1nn(CC(=O)N2[C@@H]3C[C@@H]3C[C@H]2C(=O)NCC2CCCC(C)(C)C2)c2cnccc12 (single isomer, unassigned; dia 2) [Example 18] | 
14 | 233 nM | CC(=O)c1nn(CC(=O)N2[C@@H]3C[C@@H]3C[C@H]2C(=O)NCC2CCCC2(C)C)c2cnccc12 (single isomer, unassigned; dia 2) [Example 20] | 
15 |  | NC(=O)c1nn(CC(=O)N2[C@@H]3C[C@@H]3C[C@H]2C(=O)NC(CO)C2CC2(Cl)Cl)c2ccccc12 (single isomer, unassigned; dia 2) [Example 24] | 755 nM
16 |  | CC(=O)c1nn(CC(=O)N2[C@@H]3C[C@@H]3C[C@H]2C(=O)NC(C)C2CC2(Cl)Cl)c2ccc(OCc3ncccn3)cc12 (single isomer, unassigned; dia 2) [Example 33] | 300 nM
17 |  | CC1C(CNC(=O)[C@@H]2C[C@H]3C[C@H]3N2C(=O)Cn2nc(C(N)=O)c3ccccc32)C1(Cl)Cl (single isomer, unassigned; dia 2) [Example 74, 1-(2-{(1R,3S,5R)-3-[((1R,3R) or (1S,3S)-2,2-Dichloro-3-methyl-cyclopropylmethyl)-carbamoyl]-2-aza-bicyclo[3.1.0]hex-2-yl}-2-oxo-ethyl)-1H-indazole-3-carboxylic acid amide-Dia 2] | 12 nM

Row | SMILES | IC50 [1] | IC50 [2]
18 | CC(=O)c1nn(CC(=O)N2[C@@H]3C[C@@H]3C[C@H]2C(=O)NCC2CCCCC2F)c2cnccc12 (mixture of isomers) [Example 16, (1R,3S,5R)-2-[2-(3-Acetyl-pyrazolo[3,4-c]pyridin-1-yl)-acetyl]-2-aza-bicyclo[3.1.0] hexane-3-carboxylic acid (2-fluoro-cyclohexylmethyl)-amide (mixture of 4 diastereomers)] | 174 nM | 
19 | CC(=O)c1nn(CC(=O)N2[C@@H]3C[C@@H]3C[C@H]2C(=O)NCC2CC(C)C2)c2ccc(OCc3ncccn3)cc12 (mixture of isomers) [Example 65, (1R,3S,5R)-2-{2-[3-Acetyl-5-(pyrimidin-2-ylmethoxy)-indazol-1-yl]-acetyl}-2-aza-bicyclo[3.1.0] hexane-3-carboxylic acid (3-methyl-cyclobutylmethyl)-amide (mixture of 4 diastereoisomers)] | 20 nM | 
20 | CC(=O)c1nn(CC(=O)N2[C@@H]3C[C@@H]3C[C@H]2C(=O)NCC2CCCCC2(C)C)c2cnccc12 (single isomer, unassigned; dia 1) [Example 21] | 118 nM | 
21 | CC(=O)c1nn(CC(=O)N2[C@@H]3C[C@@H]3C[C@H]2C(=O)NCC2CCCC(C)C2)c2cnccc12 (single isomer, unassigned; dia 1) [Example 119] | 188 nM | 
22 | CC(=O)c1nn(CC(=O)N2[C@@H]3C[C@@H]3C[C@H]2C(=O)NCC2CCCCC2(C)C)c2cnccc12 (single isomer, unassigned; dia 2) [Example 22] | 1190 nM | 
